What was measured:
[1] = tested on: Lymph node (LN) cells from unprimed DO11.10 TCR Tg mice; test: OVA-stimulated lymph node cell culture, T cell proliferation; assay type: cell-based; conditions: for proliferation of the T cells that respond to the antigen: LN cells stimulated with OVA, vs control RPMI, FIG. 1; for effect on T cell responses in general: overall conclusion of Example 1 (FIGS. 1-4)
[2] = tested on: Naive CD4+ T cells; test: Naive CD4+ T cells under Th17 cell polarizing conditions; assay type: cell-based; conditions: for number of CD4+ IL-10-secreting T cells: among Th17 differentiating cells, 4 days, FIG. 37; for number of CD4+ IL-17-secreting T cells: and rIL-6, 4 days, vs RPMI, FIG. 36
[3] = tested on: naïve CD4+ T cells; test: Naive CD4+ T cells under Treg cell generating conditions; assay type: cell-based; conditions: for proliferation: Treg cell generating conditions, 5 days, FIG. 39; for number of Foxp3+ Treg cells: rIL-2, with or even without rTGF-β1, 5 days, FIG. 38
[4] = tested on: ongoing EAE in recipient mice; test: Adoptive transfer of DLN cells from treated EAE donors into recipients with ongoing EAE; assay type: in vivo
Text: The donor DLN cells were obtained on day 17, which is the peak of disease for control mice. This protection was observed until day 28-30 when the mice were euthanized.

[5] = tested on: ongoing EAE in recipient mice; test: Adoptive transfer of CD4+ T cells from treated EAE donors into recipients with ongoing EAE; assay type: in vivo
[6] = tested on: EAE in C57BL/6 Rag−/− recipients; test: Adoptive transfer of CD4+ T cells from treated EAE donors into C57BL/6 Rag-/- recipients; assay type: in vivo, C57BL/6 Rag−/− mice
[7] = tested on: EAE; test: EAE after cessation of 15 days of treatment, 45 additional days of monitoring; assay type: in vivo, C57BL/6 mice
Text: The mice continued to be monitored daily for clinical signs of EAE for 45 additional days thereafter.

[8] = tested on: response to OVA in EAE-induced mice; test: EAE mice treated for 15 days, then immunized with OVA/CFA; assay type: in vivo, C57BL/6 mice
Procedure: Treatment stopped and mice were then injected with OVA/CFA (Complete Freund's Adjuvant).
Instead, the response to a new antigen that the mice are exposed to is enhanced.

[9] = mice; cited from earlier work
[10] = tested on: collagen-induced arthritis (CIA); conditions: cited from earlier work
[11] = mitogen-induced proliferation, delayed-type hypersensitivity, mixed lymphocyte reaction; cited from earlier work
[12] = oral, 50 mg/kg, beginning at onset of disease

Compound: C[C@]12CC[C@H](O)CC1=CC[C@@H]1[C@@H]2CC[C@@]2(C)[C@H]1CC[C@@]21CO1 [BNN-50, 17β-spiro-[5-androsten-17,2′-oxiran]-3β-ol]
- proliferation of the T cells that respond to the antigen [1]: significantly decreased
- effect on T cell responses in general [1]: immunosuppressive effect
- number of CD4+ IL-10-secreting T cells [2]: significant increase
- number of CD4+ IL-17-secreting T cells [2]: increase
- proliferation [3]: increased
- number of Foxp3+ Treg cells [3]: significant increase

Compound: C[C@]12CC[C@H](O)CC1=CC[C@@H]1[C@@H]2CC[C@@]2(C)[C@H]1CC[C@@]21OC1CO (stereo partly drawn) [BNN-93, 3β,21-dihydroxy-17α,20-epoxy-5-pregnene]
- proliferation of the T cells that respond to the antigen [1]: significantly decreased
- effect on T cell responses in general [1]: immunosuppressive effect
- recovery of recipients ([4]; DLN cell transfer, vs PBS-treated donors, FIG. 24): rapid recovery
- mean maximum disease score ([4]; DLN cell transfer, vs PBS-treated donors, FIG. 25): significant reduction
- EAE development in recipients ([4]; DLN cells of donors treated days 12-17, vs DLN cells from PBS-treated donors, FIG. 24): confer suppression
- ex vivo proliferation to MOG35-55 ([4]; DLN cells of recipients, FIG. 26a): significantly decreased
- levels of supernatant IFN-γ ([4]; DLN cells of recipients, FIG. 26b): decreased levels
- levels of supernatant IL-17 ([4]; DLN cells of recipients, FIG. 26c): decreased levels
- recruitment of CD11c+ dendritic cells ([4]; draining lymph nodes of recipients, FIG. 27a): substantially decreased
- recruitment of IL-17 secreting T cells ([4]; draining lymph nodes of recipients, FIG. 27b): substantially decreased
- recruitment of CD4+ Foxp3+ regulatory T cells ([4]; draining lymph nodes of recipients, FIG. 27c): increased
- mean maximum EAE score ([5]; CD4+ T cell transfer into recipients with ongoing EAE, FIGS. 28 and 29): significant decrease
- proliferation to MOG35-55 ex vivo ([5]; DLN cells and splenocytes of recipients, FIG. 30): significantly decreased
- ex vivo proliferation to MOG35-55 ([6]; DLN cells of Rag−/− recipients, FIG. 33a): substantially decreased
- production of IFN-γ ([6]; DLN cells of Rag−/− recipients, FIG. 33b): decreased production
- production of IL-17 ([6]; DLN cells of Rag−/− recipients, FIG. 33c): decreased production
- EAE scores induced in recipients ([6]; after pertussis toxin injections, FIGS. 31 and 32): no disease
- protection from EAE development after cessation of treatment ([7]; treated 15 days from around day 13, monitored 45 additional days, FIGS. 34 and 35): remained protected
- disease score after cessation of treatment ([7]; treated 15 days, monitored 45 additional days, vs control mice): remained unchanged
- number of CD4+ IL-10-secreting T cells [2]: significant increase
- number of CD4+ IL-17-secreting T cells [2]: increase
- proliferation [3]: increased
- number of Foxp3+ Treg cells [3]: significant increase
- production of IFN-γ ([8]; after OVA/CFA immunization): increased
- T cell response to OVA ex vivo (3H-Thymidine incorporation) ([8]; after OVA/CFA immunization, FIG. 40): substantially increased
- EAE phenotype after end of treatment and OVA/CFA injection ([8]; in comparison to control mice): stable phenotype without any deterioration
- protection from EAE ([8]; treated 15 days from shortly after disease onset, then OVA/CFA): clearly protected

Compound: C[C@]12CC[C@H](O)CC1=CCC1C2CC[C@@]2(C)C1CC[C@]21O[C@H]1CO (stereo partly drawn) [BNN-124, (20S)-3β,21-dihydroxy-17β,20-epoxy-5-pregnene]
- proliferation of the T cells that respond to the antigen [1]: significantly decreased
- effect on T cell responses in general [1]: immunosuppressive effect
- number of CD4+ IL-10-secreting T cells [2]: significant increase
- number of CD4+ IL-17-secreting T cells [2]: increase
- proliferation [3]: increased
- number of Foxp3+ Treg cells [3]: significant increase

Compound: C#C[C@]1(O)CC[C@H]2[C@@H]3[C@@H](O)C=C4C[C@@H](O)CC[C@]4(C)[C@H]3CC[C@@]21C [HE3286]
- oral bioavailability [9]: up to 25%
- numbers and function of CD4+CD25+FOXp3+CD127-regulatory T cells (T reg) ([10]; associated with benefit): increases
- CIA peak scores [10, 12]: significantly decreased
- daily severity of arthritis scores [10, 12]: significantly decreased
- immune suppression in classical models [11]: not found to be immune suppressive

From patent US20120225852A1, “USE OF STEROID COMPOUNDS” (priority 2009, published 2012)
